From patent US20250275953A1, “VODOBATINIB FOR REDUCING PROGRESSION OF PARKINSON'S DISEASE” (Sun Pharma Advanced Research Company Ltd., priority 2022, published 2025)

Experiment: Exposure on transition from capsule to powder, phase 2 study in early PD
Assay type: in vivo, human
Conditions: on average
Experimental: A phase 2, randomized, double-blind, placebo-controlled study of vodobatinib in approximately 504 subjects with early Parkinson's disease is ongoing. The subjects are being administered a low dose (96 mg capsule or 192 mg powder of vodobatinib) or high dose (192 mg capsule or 384 mg powder of vodobatinib). The subjects are initially administered the capsule and then transitioned to the powder. […] The objective of the study is to determine if vodobatinib reduces the rate of progression of early-stage Parkinson's disease over 40 weeks, as defined by the sum of the MDS-UPDRS (Movement Disorder Society-Unified Parkinson's Disease Rating Scale) Parts 2 and 3 scores.

SMILES: Cc1ccc(C(=O)NNC(=O)c2c(C)cccc2Cl)cc1C#Cc1cnc2ccccc2c1 [N′-(2-chloro-6-methylbenzoyl)-4-methyl-3-[2-(3-quinolyl)ethynyl]-benzohydrazide]
- increase in exposure, capsule to powder (96 to 192 mg or 192 to 384 mg): approximately 1.4 fold
